Assay results reported in patent publication US5767237A, “Peptide derivatives” (Teikoku Hormone Mfg. Co., Ltd., priority 1993, dated 1998).

Test system: mouse leukemia P388 cells
Test: Assay of antitumor activity: increase in life span of mice implanted with P388 leukemia
Type: in vivo
Conditions: CDF1 mice, P388 cells 10^6 cells/mouse i.p.; compound i.p. on first and fifth day after implantation; observed for 60 days; ILS from median survival days
Description: (1) Assay of antitumor activity
0.1 ml (10^6 cells/mouse) portions of mouse leukemia P388 cells were implanted intraperitoneally into 7-week-old CDF1 mice. […] From the results were calculated increases in life span (ILS, %) according to the following equation. In the following equation, T means median survival days of the chemical administration group, and C means median survival days of the control group. [formula]
Antitumor activity is shown as the relative ratio in the case where the ILS of dolastatin 10 is supposed to be 100.

dolastatin 10
Antitumor activity (relative ratio of ILS, ILS of dolastatin 10 supposed to be 100): 100
